In paper PMC12392461, “Beyond Estrogenicity: A Comparative Assessment of Bisphenol A and Its Alternatives in In Vitro Assays Questions Safety of Replacements” (Environmental Science & Technology, 2025):
Where two headings read alike, the source gives them in different places.

Assays:
[1] = tested on: HEK293H, HEK293T, H4IIe, MCF7 and SH-SY5Y cells; details: for cytotoxicity,median REPBPA,IC10: median IC10 relative to BPA; for IC10,Median (M): median cytotoxicity of all cell lines; for IC10, median: median cytotoxicity over all cell lines
Method: Cell culture conditions and bioassay protocols including response detection are provided in Text S2.1–2.4 and Table S3. − Cell viability was determined from cell confluency using an IncuCyte S3 Live-Cell Analysis System (Sartorius AG, Essen, Germany) before and after exposure, except for SH-SY5Y cells (live–dead staining with Nuclear Green LcS1 and propidium iodide, Abcam, UK). For metabolic activation experiments, cell viability was assessed using the ToxBLAzer DualScreen Kit (Thermo Fisher Scientific) to capture the remaining toxicity in ERα-UAS-bla GripTite after treatment with the aCYP catalyst (details in Text S2.4).
For ARE, the concentration that triggered an induction ratio of 1.5 (ECIR1.5) was used as the benchmark value, as detailed in Text S2.5. IC10 values also served as a threshold for data analysis in all assays; only concentrations below IC10 were considered when deriving EC10 or ECIR1.5.
TR indicates whether the cytotoxicity is triggered by specific toxicity mechanisms (TR ≥ 10) or not (0.1< TR< 10). 3 TR=IC10,baseline/IC10 We measured the cytotoxicity of BPA and its alternatives in HEK293H (PPARγ), HEK293T (ERα), H4IIe (AhR CALUX), MCF7 (ARE/MMP), and differentiated SH-SY5Y cells (Table S6). […]
medium, supplemented with 2% B-27 Supplement and 2 mM GlutaMAX Supplement. SH - SY5Y cells were differentiated with 10 µM all-trans retinoic acid prior to the assay.
S2.2: Cell Seeding and Incubation. For all bioassays, cell suspensions in the respective assay medium were dispensed into each well of 384-well plates using a MultiFlo Dispenser (Biotek, (now Agilent), Winooski, VT, U.S.). After seeding, the plates were incubated at 37° C and 5% CO₂ for […]. The final cell densities and plate types were as follows: Black poly-D-lysine […]
6500 cells/well, ERα: 5000 cells/well. White 384-well plates with a clear bottom (Product No.
NYC, U.S.) for AhR: 3250 cells/well. Black Collagen I coated plates were used (Product No.
S2.3: Chemical Dosing and Assay Analysis Procedures. The dosing procedure and high-throughput assay workflow have been described in detail before. 9 The dosing concentrations […]
Stock solutions were then either added directly to the respective cell culture medium or evaporated under nitrogen, followed by replenishment with fresh medium. The final solvent content in each well was kept below 1% for methanol, 0% for acetonitrile.
Dosing plates were prepared as 11 -step serial dilutions using a Hamilton Microlab Star robotic system (Hamilton, Bonaduz, Switzerland), and chemicals were dosed in duplicates by transferring 10 μL twice from the dosing plates to the cell plates . After quantifying cell confluency as described in S2. 4., the exposed cells were incubated at 37° C and 5% CO₂ for an additional 24 h. All chemicals were tested in all assays with at least three independent […]
S2.4: Cell Viability Measurement s and bioanalytical protocols . The confluency as a measure of cell viability was determined with an IncuCyte S3 Live -Cell Analysis System (Sartorius AG, Essen, Germany). With this method the confluency of cells in a microscopy image are normalized to control wells without cells and compared before and after 24 hours of exposure.
This method has been described previously 13. Cell viability of SH-SY5Y cells was measured […]
propidium iodide (PI, Abcam, Cambridge, U.K.).14 Nuclear Green LCS1 is a membrane-permeable dye that stains the nuclei of all cells, whereas PI only enters cells with compromised membrane integrity (non-viable cells). After staining, live cells show green nuclei without red fluorescence, while dead cells display both green and red nuclear fluorescence due to PI […]
intercalation. Cell viability was calculated as the proportion of green-only nuclei relative to the […]
For experiments with the preceding aCYP activation, ERα cell viability was additionally calculated from the readout of the ToxBLAzer reagent. The ToxBLAzer assay was conducted following the manufacturer's instructions (Thermo Fisher, Waltham, MA, U.S.).13 Fluorescence

[2] = tested on: Tox21 assays; details: cited from earlier work
[3] = experimental, cited from earlier work
[4] = tested on: Tox21 assays; test: Re-evaluated Tox21 data (Adamovsky et al.), REPBPA and SRbaseline; details: for SRbaseline: Specificity Ratio;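 as to all read-outs here: published Tox21 results reanalysed with a revised model predicting baseline toxicity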
Excerpt: We also reanalyzed the Tox21 data of Adamovsky et al. with the updated baseline toxicity prediction model (Table S2).

[5] = tested on: ERα; details: cited from earlier work
[6] = tested on: PPARγ; design: method as in Crosthwait et al. 2025; Sun et al. 2025; details: ref Crosthwait et al. 2025; Sun et al. 2025; cited from earlier work
[7] = tested on: ERα; test: Literature ERα reporter gene assays (comparison); assay type: cell-based; details: for EC10, approx.: in M (unit assumed)
Method: S5.4: Comparison with literature data for ERα reporter gene assays
To improve data comparability with our own results we converted reported EC₅₀ to EC₁₀ by dividing by 9, which is the ratio for log-logistic concentration-response curves with a hillslope of 1 (Figure S9a). Additionally, REPBPA values were calculated to enable a more consistent evaluation. Methodological differences between studies must be considered, as Reiniger et al.24 used the YES assay, while Goksøyr et al.25 applied ERα from fish (Figure S9b).
Cyan symbols highlight the ER-UAS-bla GripTite (this study and Tox21GenBLA).
(1 picture or pasted object on this page, not shown here)

[8] = 15 min
[9] = TOX21_AR_LUC_MDAKB2_Antagonist_0,5nM_R1881, re-evaluated Tox21 data, ref Adamovsky et al 2024
[10] = TOX21_PPARg_BLA_antagonist_ratio, re-evaluated Tox21 data, ref Adamovsky et al 2024
[11] = Tox21Luc, ref Adamovsky et al. 2024
[12] = TOX21_AR_LUC_MDAKB2_Antagonist_0,5nM_R1881, Relative Effect Potency
[13] = TOX21_AR_LUC_MDAKB2_Antagonist_0,5nM_R1881
[14] = TOX21_PPARg_BLA_antagonist_ratio
[15] = Atlantic cod estrogen receptor, approximated from literature EC50, ref Goksøyr et al 2024
[16] = Atlantic cod estrogen receptor, ref Goksøyr et al 2024
[17] = approximated from literature EC50, ref Pelch et al 2019
[18] = approximated from literature EC50, ref Reiniger et Oehlmann 2024
[19] = approximated from literature values, ref Kojima et al 2019
[20] = relative estrogenic potency vs BPA, ref Kojima et al 2019
[21] = relative estrogenic potency vs BPA, ref Pelch et al 2019
[22] = relative estrogenic potency vs BPA, ref Reiniger et Oehlmann 2024
[23] = TOX21_CAR_Agonist, re-evaluated Tox21 data, ref Adamovsky et al 2024
[24] = TOX21_CAR_Antagonist, re-evaluated Tox21 data, ref Adamovsky et al 2024
[25] = Tox21BLA, ref Adamovsky et al. 2024
[26] = estrogen receptor from Atlantic cod (Gadus morhua), ref Goksøyr et al 2024
[27] = TOX21_CAR_Agonist, Relative Effect Potency
[28] = TOX21_CAR_Antagonist, Relative Effect Potency

Oc1ccc(Sc2ccc(O)cc2)cc1 [BPT, 4,4'-Thiodiphenol]
cytotoxicity,median REPBPA,IC10 [1]: 0.74 | IC10,Median (M) [1]: 9.51 × 10^–5 M | IC10, median [1]: 95.1 µM | EC10 [2, 9]: 1.43e-06 M | EC10 [2, 10]: 2.66e-06 M | EC10 [2, 11]: 7.19E-08 | predicted or literature experimental log Kow ([3]; ref Hansch, 1995): 3.34 | REPBPA [4, 12]: 1.69 | SRbaseline [4, 13]: 66.82 | SRbaseline [4, 14]: 35.93 | REPBPA [4, 11]: 8.32E-01

O=C(OCc1ccccc1)c1ccc(O)cc1 [BzPB, Benzyl 4-hydroxybenzoate]
cytotoxicity,median REPBPA,IC10 [1]: 0.53 | IC10,Median (M) [1]: 1.32 × 10^–4 M | IC10, median [1]: 132 µM | Efficacy % ([5]; ref Pelch et al 2019): 19.70% | predicted or literature experimental log Kow ([3]; ref Lehner 1993): 3.56

CC(C)Oc1ccc(S(=O)(=O)c2ccc(O)cc2)cc1 [D8, 4-((4-Isopropoxyphenyl)sulfonyl)phenol]
cytotoxicity,median REPBPA,IC10 [1]: 0.21 | Efficacy % ([5]; ref Pelch et al 2019): 10.30% | PPARγ transactivation reported in the literature [6]: weaker effects

CCC(C)(c1ccc(O)cc1)c1ccc(O)cc1 [BPB, 4,4'-(Butane-2,2-diyl)diphenol]
cytotoxicity,median REPBPA,IC10 [1]: 1.93 | IC10,Median (M) [1]: 3.62 × 10^–5 M | IC10, median [1]: 36.2 µM | EC10, approx. [7, 15]: ~1.78E-07 | REPBPA [7, 16]: 1.19E+00 | EC10, approx. [7, 17]: ~3.56E-08 | EC10, approx. [7, 18]: ~1.87E-07 | EC10, approx. [7, 19]: ~1.15E-08 | REPBPA [7, 20]: 3.17E+00 | REPBPA [7, 21]: 3.75E+00 | REPBPA [7, 22]: 1.35E+00 | % Loss [8]: 12% | Cparent-Ratio Mean [8]: 0.88 | Cparent-Ratio Rep.1 [8]: 0.80 | Cparent-Ratio Rep.1 % [8]: 79.66% | Cparent-Ratio Rep.2 [8]: 0.96 | Cparent-Ratio Rep.2 % [8]: 96.18% | EC10 ([2]; ATG_NRF2_ARE_CIS_up, re-evaluated Tox21 data, ref Adamovsky et al 2024): 4.31e-07 M | EC10 [2, 9]: 2.58e-06 M | EC10 [2, 23]: 1.15e-06 M | EC10 [2, 24]: 6.91e-08 M | EC10 [2, 25]: 1.63E-07 | EC10 [2, 11]: 2.15E-08 | EC50 [5, 26]: 1.6 µM | EC50 ([5]; ref Kojima et al 2019): 0.074 µM | EC50 ([5]; ref Pelch et al 2019): 0.32 µM | Efficacy % ([5]; ref Pelch et al 2019): 115.70% | EC50 ([5]; ref Reiniger et Oehlmann 2024): 1.68 µM | Efficacy % ([5]; ref Reiniger et Oehlmann 2024): 9.23E+01% | PPARγ transactivation reported in the literature [6]: No agonism was detected | REPBPA ([4]; ATG_NRF2_ARE_CIS_up, Relative Effect Potency): 17.53 | SRbaseline ([4]; ATG_NRF2_ARE_CIS_up): 112.9 | REPBPA [4, 12]: 0.94 | SRbaseline [4, 13]: 18.87 | REPBPA [4, 27]: 1.20 | SRbaseline ([4]; TOX21_CAR_Agonist): 42.52 | REPBPA [4, 28]: 7.88 | SRbaseline ([4]; TOX21_CAR_Antagonist): 704.7 | REPBPA [4, 25]: 3.63E+00 | REPBPA [4, 11]: 1.63E+00

Oc1ccc(C(c2ccc(O)cc2)(C(F)(F)F)C(F)(F)F)cc1 [BPAF, 4,4'-(1,1,1,3,3,3-Hexafluoropropane-2,2-diyl)diphenol]
cytotoxicity,median REPBPA,IC10 [1]: 3.07 | IC10,Median (M) [1]: 2.28 × 10^–5 M | IC10, median [1]: 22.8 µM | EC10, approx. [7, 15]: ~2.56E-08 | REPBPA [7, 16]: 8.26E+00 | EC10, approx. [7, 17]: ~1.44E-08 | EC10, approx. [7, 18]: ~4.82E-08 | EC10, approx. [7, 19]: ~4.30E-08 | REPBPA [7, 20]: 8.49E-01 | REPBPA [7, 21]: 9.23E+00 | REPBPA [7, 22]: 5.21E+00 | % Loss [8]: -9% | EC10 [2, 9]: 2.92e-06 M | EC10 [2, 23]: 5.35e-06 M | EC10 [2, 24]: 4.23e-07 M | EC10 [2, 10]: 5.75e-06 M | EC10 [2, 25]: 2.07E-07 | EC10 [2, 11]: 1.10E-08 | EC50 [5, 26]: 0.23 µM | EC50 ([5]; ref Kojima et al 2019): 0.39 µM | EC50 ([5]; ref Pelch et al 2019): 0.13 µM | Efficacy % ([5]; ref Pelch et al 2019): 91.50% | EC50 ([5]; ref Reiniger et Oehlmann 2024): 0.434 µM | Efficacy % ([5]; ref Reiniger et Oehlmann 2024): 8.21E+01% | REPBPA,ERα reported in the literature ([5]; ref Text S5.4, Tables S2 and S7): 3–5 | PPARγ transactivation reported in the literature [6]: No agonism was detected | REPBPA [4, 12]: 0.83 | SRbaseline [4, 13]: 22.15 | REPBPA [4, 27]: 0.26 | SRbaseline ([4]; TOX21_CAR_Agonist): 12.10 | REPBPA [4, 28]: 1.29 | SRbaseline ([4]; TOX21_CAR_Antagonist): 153.1 | SRbaseline [4, 14]: 11.28 | REPBPA [4, 25]: 2.86E+00 | REPBPA [4, 11]: 1.23E+00

C=CCOc1ccc(S(=O)(=O)c2ccc(O)cc2)cc1 [BPS-MAE, 4-[[4-(Allyloxy)phenyl]sulfonyl]phenol]
cytotoxicity,median REPBPA,IC10 [1]: 0.37 | IC10,Median (M) [1]: 1.90 × 10^–4 M | IC10, median [1]: 190 µM | Efficacy % ([5]; ref Pelch et al 2019): 10.30% | PPARγ transactivation reported in the literature [6]: weaker effects

O=S(=O)(c1ccc(O)cc1)c1ccc(OCc2ccccc2)cc1 [BPS-MPE, 4-[4-(benzyloxy)benzenesulfonyl]phenol]
cytotoxicity,median REPBPA,IC10 [1]: 0.62 | IC10,Median (M) [1]: 1.12 × 10^–4 M | IC10, median [1]: 112 µM | Efficacy % ([5]; ref Pelch et al 2019): 9.40% | PPARγ transactivation reported in the literature [6]: significant PPARγ activation

Cc1ccc(S(=O)(=O)NC(=O)Nc2ccc(Cc3ccc(NC(=O)NS(=O)(=O)c4ccc(C)cc4)cc3)cc2)cc1 [BTUM, 4,4'-Bis(p-tolylsulfonylureido)diphenylmethane]
cytotoxicity,median REPBPA,IC10 [1]: 2.26 | IC10,Median (M) [1]: 3.10 × 10^–5 M | IC10, median [1]: 31 µM | PPARγ transactivation reported in the literature [6]: weaker effects
